Assay results published in ChEMBL document CHEMBL5465560, “Selectivity Literature for EUbOPEN Chemogenomic Library” (2024).

Tests used:
[1] = biological target: T1, Testis-specific serine/threonine-protein kinase 1 (Homo sapiens) (UniProt Q9BXA7); experiment: Selectivity interaction (KinomeScan (DiscoverX)) EUB0001079a TSSK1B; details: at 1 µM
T1 sequence (whole entry): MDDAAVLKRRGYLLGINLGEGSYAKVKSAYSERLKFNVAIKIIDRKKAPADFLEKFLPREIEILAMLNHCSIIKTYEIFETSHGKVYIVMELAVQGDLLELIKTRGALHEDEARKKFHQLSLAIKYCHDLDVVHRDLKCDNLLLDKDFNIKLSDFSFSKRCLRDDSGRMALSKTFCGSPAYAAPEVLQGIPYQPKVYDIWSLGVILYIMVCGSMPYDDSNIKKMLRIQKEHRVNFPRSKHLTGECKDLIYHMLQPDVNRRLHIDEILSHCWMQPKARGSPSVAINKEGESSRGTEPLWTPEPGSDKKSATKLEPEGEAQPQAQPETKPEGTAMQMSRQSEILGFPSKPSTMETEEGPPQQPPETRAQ

[2] = biological target: T2, Mitogen-activated protein kinase kinase kinase 6 (Homo sapiens) (UniProt O95382); experiment: Selectivity interaction (KinomeScan (DiscoverX)) EUB0000666a MAP3K6; details: at 10 µM
T2 sequence (whole entry): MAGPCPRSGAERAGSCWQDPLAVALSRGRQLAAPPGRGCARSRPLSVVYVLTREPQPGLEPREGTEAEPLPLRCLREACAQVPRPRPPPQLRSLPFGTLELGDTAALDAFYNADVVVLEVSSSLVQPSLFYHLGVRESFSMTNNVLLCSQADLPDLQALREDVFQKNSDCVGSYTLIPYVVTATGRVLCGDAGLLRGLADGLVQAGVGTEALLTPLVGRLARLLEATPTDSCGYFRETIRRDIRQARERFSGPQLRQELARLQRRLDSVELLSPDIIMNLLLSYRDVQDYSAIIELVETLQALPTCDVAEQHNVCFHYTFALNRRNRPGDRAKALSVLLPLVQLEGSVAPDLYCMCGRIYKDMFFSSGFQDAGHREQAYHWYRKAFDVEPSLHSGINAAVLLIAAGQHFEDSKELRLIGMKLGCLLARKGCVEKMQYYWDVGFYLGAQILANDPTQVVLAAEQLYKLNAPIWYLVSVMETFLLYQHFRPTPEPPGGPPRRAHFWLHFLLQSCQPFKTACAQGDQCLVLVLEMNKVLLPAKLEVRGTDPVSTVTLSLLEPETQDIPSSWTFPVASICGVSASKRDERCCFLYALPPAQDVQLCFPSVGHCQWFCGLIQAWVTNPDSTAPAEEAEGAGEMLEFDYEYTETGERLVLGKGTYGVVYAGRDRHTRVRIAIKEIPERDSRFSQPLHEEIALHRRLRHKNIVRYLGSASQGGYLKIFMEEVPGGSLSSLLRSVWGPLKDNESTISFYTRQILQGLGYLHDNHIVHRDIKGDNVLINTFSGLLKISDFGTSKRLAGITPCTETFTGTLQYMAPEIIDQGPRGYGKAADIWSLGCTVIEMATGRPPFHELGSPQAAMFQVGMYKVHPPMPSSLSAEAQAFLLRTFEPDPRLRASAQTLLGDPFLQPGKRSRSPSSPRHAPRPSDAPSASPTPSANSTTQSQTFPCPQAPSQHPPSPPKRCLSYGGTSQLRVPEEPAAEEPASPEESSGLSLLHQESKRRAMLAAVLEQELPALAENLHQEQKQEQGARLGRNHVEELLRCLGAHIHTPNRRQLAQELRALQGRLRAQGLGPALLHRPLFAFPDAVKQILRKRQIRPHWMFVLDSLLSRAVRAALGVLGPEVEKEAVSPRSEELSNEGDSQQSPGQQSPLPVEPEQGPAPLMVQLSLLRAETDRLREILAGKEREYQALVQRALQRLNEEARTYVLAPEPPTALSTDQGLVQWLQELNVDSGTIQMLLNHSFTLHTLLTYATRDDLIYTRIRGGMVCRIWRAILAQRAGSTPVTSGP

[3] = biological target: Ribosomal protein S6 kinase alpha-6 (Homo sapiens, UniProt Q9UK32); experiment: Selectivity interaction (KinomeScan (DiscoverX)) EUB0000666a RPS6KA6; details: at 10 µM
Chain of Ribosomal protein S6 kinase alpha-6 (Q9UK32 whole entry): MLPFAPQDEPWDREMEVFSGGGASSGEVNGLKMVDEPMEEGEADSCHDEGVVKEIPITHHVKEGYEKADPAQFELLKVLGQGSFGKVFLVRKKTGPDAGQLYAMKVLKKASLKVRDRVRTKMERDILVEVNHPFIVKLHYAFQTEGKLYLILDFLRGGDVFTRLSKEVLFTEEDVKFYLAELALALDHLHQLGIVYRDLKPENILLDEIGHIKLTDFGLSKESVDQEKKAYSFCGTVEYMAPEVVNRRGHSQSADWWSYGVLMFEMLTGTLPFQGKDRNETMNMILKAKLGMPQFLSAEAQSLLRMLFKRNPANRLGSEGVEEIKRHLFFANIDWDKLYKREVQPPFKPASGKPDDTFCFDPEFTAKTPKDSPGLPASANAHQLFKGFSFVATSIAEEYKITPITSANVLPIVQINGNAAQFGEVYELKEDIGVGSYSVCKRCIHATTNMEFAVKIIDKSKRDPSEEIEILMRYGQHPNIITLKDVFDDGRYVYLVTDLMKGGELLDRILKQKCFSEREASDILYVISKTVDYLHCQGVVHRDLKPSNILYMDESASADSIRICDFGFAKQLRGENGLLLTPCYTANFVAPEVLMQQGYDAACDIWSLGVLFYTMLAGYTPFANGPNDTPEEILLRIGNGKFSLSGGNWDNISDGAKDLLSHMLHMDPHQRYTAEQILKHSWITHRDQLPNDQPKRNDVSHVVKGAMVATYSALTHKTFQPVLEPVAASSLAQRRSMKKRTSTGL

[4] = biological target: Tyrosine-protein kinase FRK (Homo sapiens) (UniProt P42685); experiment: Selectivity interaction (KinomeScan (DiscoverX)) EUB0001049a FRK; details: at 1 µM
Chain of Tyrosine-protein kinase FRK (Homo sapiens) (P42685 whole entry): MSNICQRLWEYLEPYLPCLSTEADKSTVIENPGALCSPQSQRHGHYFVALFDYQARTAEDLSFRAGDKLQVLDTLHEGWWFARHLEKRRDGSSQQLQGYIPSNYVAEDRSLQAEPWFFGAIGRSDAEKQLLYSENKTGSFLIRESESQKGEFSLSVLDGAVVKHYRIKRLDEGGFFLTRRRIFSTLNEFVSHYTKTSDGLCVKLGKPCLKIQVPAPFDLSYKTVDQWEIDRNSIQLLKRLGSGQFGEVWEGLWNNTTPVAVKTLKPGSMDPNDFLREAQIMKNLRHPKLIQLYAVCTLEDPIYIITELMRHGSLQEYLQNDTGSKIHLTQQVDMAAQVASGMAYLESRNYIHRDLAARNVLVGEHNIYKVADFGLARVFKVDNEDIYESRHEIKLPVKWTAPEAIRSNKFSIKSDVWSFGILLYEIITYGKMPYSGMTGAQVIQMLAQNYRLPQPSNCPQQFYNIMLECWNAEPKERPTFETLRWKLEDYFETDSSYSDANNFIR

[5] = biological target: Interferon-induced, double-stranded RNA-activated protein kinase (Homo sapiens) (UniProt P19525); experiment: Selectivity interaction (ActivX KiNativ screen (kinase selectivity in THP-1 cell lysates)) EUB0000639a EIF2AK2; type: subcellular; details: lysate
Chain of Interferon-induced, double-stranded RNA-activated protein kinase (Homo sapiens) (P19525 whole entry): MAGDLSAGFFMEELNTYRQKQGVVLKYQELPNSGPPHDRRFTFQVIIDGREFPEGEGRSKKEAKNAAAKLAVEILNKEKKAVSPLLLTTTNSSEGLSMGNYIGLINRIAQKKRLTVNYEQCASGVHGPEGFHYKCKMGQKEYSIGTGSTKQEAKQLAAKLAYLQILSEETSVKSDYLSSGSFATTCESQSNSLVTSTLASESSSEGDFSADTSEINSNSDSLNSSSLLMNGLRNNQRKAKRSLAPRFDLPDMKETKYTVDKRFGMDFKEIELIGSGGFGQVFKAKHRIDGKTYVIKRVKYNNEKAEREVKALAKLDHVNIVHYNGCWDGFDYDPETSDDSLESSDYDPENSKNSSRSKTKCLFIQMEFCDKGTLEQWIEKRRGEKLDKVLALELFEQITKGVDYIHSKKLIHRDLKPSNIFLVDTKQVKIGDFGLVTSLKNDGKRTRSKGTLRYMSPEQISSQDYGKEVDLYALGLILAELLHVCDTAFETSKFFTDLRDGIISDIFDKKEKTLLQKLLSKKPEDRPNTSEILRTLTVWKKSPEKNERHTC

[6] = biological target: T3, Serine/threonine-protein kinase TBK1 (Homo sapiens) (UniProt Q9UHD2); experiment: Selectivity interaction (ActivX KiNativ screen (kinase selectivity in THP-1 cell lysates)) EUB0000639a TBK1; type: subcellular; details: lysate, at 1 µM
T3 sequence (whole entry): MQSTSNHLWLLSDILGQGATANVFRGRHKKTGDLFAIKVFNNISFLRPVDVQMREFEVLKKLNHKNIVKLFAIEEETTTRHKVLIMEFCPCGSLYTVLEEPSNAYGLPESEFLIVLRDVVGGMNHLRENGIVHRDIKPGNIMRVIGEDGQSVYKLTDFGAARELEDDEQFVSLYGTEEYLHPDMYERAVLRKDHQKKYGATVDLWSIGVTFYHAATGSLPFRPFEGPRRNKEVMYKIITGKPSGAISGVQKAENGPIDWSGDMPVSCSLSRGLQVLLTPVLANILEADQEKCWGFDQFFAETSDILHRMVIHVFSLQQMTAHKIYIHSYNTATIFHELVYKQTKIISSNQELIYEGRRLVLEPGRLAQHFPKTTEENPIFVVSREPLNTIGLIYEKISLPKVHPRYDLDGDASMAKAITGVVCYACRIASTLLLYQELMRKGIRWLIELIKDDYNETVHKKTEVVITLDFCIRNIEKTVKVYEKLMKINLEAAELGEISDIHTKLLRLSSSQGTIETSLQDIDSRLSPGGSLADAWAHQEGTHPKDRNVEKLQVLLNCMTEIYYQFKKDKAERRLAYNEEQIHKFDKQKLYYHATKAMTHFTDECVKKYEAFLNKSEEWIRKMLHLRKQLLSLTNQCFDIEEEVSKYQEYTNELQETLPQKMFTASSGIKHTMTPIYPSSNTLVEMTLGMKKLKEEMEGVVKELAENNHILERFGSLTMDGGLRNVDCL

[7] = biological target: RAC-alpha serine/threonine-protein kinase (Homo sapiens, UniProt P31749); experiment: Selectivity interaction (KinomeScan (DiscoverX)) EUB0000655a AKT1; details: at 10 µM
Chain of RAC-alpha serine/threonine-protein kinase (P31749 whole entry): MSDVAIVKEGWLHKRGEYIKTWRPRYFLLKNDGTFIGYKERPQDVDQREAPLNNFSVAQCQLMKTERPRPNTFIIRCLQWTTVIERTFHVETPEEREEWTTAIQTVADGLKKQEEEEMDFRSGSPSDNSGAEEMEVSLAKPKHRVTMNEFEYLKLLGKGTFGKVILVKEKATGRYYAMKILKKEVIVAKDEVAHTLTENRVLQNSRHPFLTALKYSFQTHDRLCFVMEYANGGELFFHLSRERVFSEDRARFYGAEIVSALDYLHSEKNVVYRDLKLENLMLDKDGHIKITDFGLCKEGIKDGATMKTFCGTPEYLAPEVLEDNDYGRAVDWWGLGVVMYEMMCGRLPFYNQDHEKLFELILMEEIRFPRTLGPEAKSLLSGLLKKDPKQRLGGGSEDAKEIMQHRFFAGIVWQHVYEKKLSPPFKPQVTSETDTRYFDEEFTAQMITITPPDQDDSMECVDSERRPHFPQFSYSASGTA

Nc1cnc(N2CCc3cc(S(=O)(=O)Nc4c(F)cc(Cl)cc4F)cc(N4CCCC4=O)c32)nc1 [TP-020n]
% of control [1]: 100%

O=C(NOC[C@H](O)CO)c1ccc(F)c(F)c1Nc1ccc(I)cc1F
% of control [2]: 95% | % of control [3]: 80%

COc1cc(Nc2nc(C)cc(-c3cnn4nc(OC)ccc34)n2)cc(C(F)(F)F)c1
% of control [4]: 100%

CC[C@@H]1[C@H](F)C(=O)N[C@@H]1COc1nccc2cc(C(N)=O)c(OC)cc12 [ZIMLOVISERTIB]
% of inhibition ([5]; at 0.01 µM): 0.5% | % of inhibition ([5]; at 0.04 µM): -0.3% | % of inhibition ([5]; at 0.2 µM): 7.5% | % of inhibition ([5]; at 1 µM): -3.5% | % of inhibition ([5]; at 5 µM): -12.9% | % of inhibition [6]: 7.6%

CN(C)CCOc1ccc(-c2nc(-c3ccncc3)c(-c3ccc4c(c3)CC/C4=N\O)[nH]2)cc1
% of control [7]: 97%
